Tests used:
[1] = system: subjects with advanced medical illness and opioid-induced constipation; test: Study 2: double-blind, randomized, placebo-controlled study of subcutaneous MNTX (fixed dose); type: in vivo, human
Experimental: A double-blind, randomized, placebo-controlled study of subcutaneous MNTX was conducted in subjects with advanced medical illness and a current history of opioid-induced constipation. To satisfy eligibility criteria for enrollment, subjects were required to be on stable doses of laxatives and opioid analgesics. In the context of the study, a stable dose of opioid analgesics was defined as no reduction in the dose of opioid analgesic of ≥50% for at least three days before the first dose of MNTX. A stable dose of laxatives was defined as having a standing laxative order (and not PRN, or as-needed) for at least three days before the first dose of MNTX. A diagnosis of constipation was provided if the subject had (a) fewer than 3 bowel movements during the previous week by history and no clinically notable laxation in the 24 hours before the first dose of MNTX, or (b) no clinical notable laxation in the 48 hours before the first dose of MNTX.
Eligible subjects were randomized to receive MNTX or placebo every other day during a 14-day, double-blind period. Subjects weighing 38 kg to <62 kg received 0.4 mL SC MNTX (8 mg) or equal volume of placebo. Subjects weighing ≥62 kg received 0.6 mL SC MNTX (12 mg) or equal volume of placebo. Injections were administered subcutaneously in either the shoulder area, buttocks, abdomen, thighs or extremities, and rescue-laxatives, enemas or manual disimpactions were not administered within 4 hours before or after each dose of test article.
The endpoint assessed was the proportion of subjects with rescue-free laxation response within 4 hours after at least two of the first four doses. Two hundred and twenty-nine (229) subjects were enrolled and evaluated, including 151 patients with advanced cancers and 78 patients with other advanced illness (e.g., cardiovascular, pulmonary or neurologic disorders). Of which 229 subjects which enrolled, 113 were randomized to the placebo group and 116 were randomized to the MNTX treatment group. Of the patients who completed the double-blind phase, 142 (placebo 69, MNTX 73) elected to proceed with a 10-week open label phase of subcutaneous MNTX at PRN dosing.

[2] = system: cancer subjects with opioid-induced constipation (tumor disease progression); test: Pooled analysis of Study 1 and Study 2: adverse events of disease progression; type: in vivo, human
Text: As part of the routine adverse event (AE) evaluations filled out by all investigators in the studies described in Examples 1 and 2, AEs of tumor progression were tabulated. Both studies were randomized, placebo-controlled trials that involved a 2-week treatment period followed by a 2-week follow-up period. The enrolled subjects were advanced illness (incurable cancer or other end-stage disease) subjects with OIC who were receiving stable doses of laxatives and opioid analgesics. In the context of the study, a stable dose of opioid analgesics was defined as no reduction in the dose of opioid analgesic of ≥50% for at least three days before the first dose of MNTX. A stable dose of laxatives was defined as having a standing laxative order (and not PRN, or as-needed) for at least three days before the first dose of MNTX. A diagnosis of constipation was provided if the subject had (a) fewer than 3 bowel movements during the previous week by history and no clinically notable laxation in the 24 hours before the first dose of MNTX, or (b) no clinical notable laxation in the 48 hours before the first dose of MNTX. In Study 1 (Example 1), subjects received subcutaneous MNTX 0.15 mg/kg or placebo (PBO) every other day (QOD), and in Study 2 (Example 2) subjects received subcutaneous MNTX (8 mg or 12 mg based on body weight 38 to <62 kg or ≥62 kg, respectively) or placebo administered QOD. The 12 mg fixed dose was designed to correspond to the 0.15 mg/kg weight-based dose. Rescue-laxatives, enemas or manual disimpactions were not administered within 4 hours before or after each dose of MNTX. For the purpose of this analysis, only subjects with a cancer-related diagnosis were considered. For statistical significance testing, the Fisher's exact test was used (p<0.05).
Table 1 and FIG. 1 provide AEs of disease progression in the pooled analysis and for each individual study during the double-blind phase of the studies.
Furthermore, when the pool of MNTX-treated subjects across both studies was examined, there was a significant decrease in the percentage of subjects with disease progression between subjects who responded to MNTX treatment and those who were considered non-responders. A subject with laxation within 4 hours after two of the first four doses of MNTX was considered a responder.
For the analysis carried out in this Example and in Example 3, a subject with laxation occurring from 0-4 hours after two of the first four doses of MNTX was considered a MNTX responder or responsive subject. Data for placebo patients who elected to participate in the open-label MNTX treatment phase was collected from the first 4 doses of open-label treatment. Data for the MNTX-treated patients was collected from the first 4 doses of the double-blind phase of the study.

Lewis lung cancer model = conditions: infusion of MNTX; cited from earlier work

C[N@+]1(CC2CC2)CC[C@]23c4c5ccc(O)c4O[C@H]2C(=O)CC[C@@]3(O)[C@H]1C5.[Br-] [MNTX, (R)—N-(cyclopropylmethyl) noroxymorphone methobromide]
subjects with rescue-free laxation response within 4 hours after at least 2 of the first 4 doses ([1]; ITT population, first week, 8 or 12 mg SC QOD): 62.9%
number of rescue-free laxations within 24 hour post dosing per week ([1]; Week 1): 4.9
number of total laxations within 24 hour post dosing per week ([1]; Week 1): 4.9
number of rescue-free laxations within 24 hour post dosing per week ([1]; Week 2): 3.2
number of total laxations within 24 hour post dosing per week ([1]; Week 2): 3.2
improvement in the stool symptoms domain of the PAC-SYM ([1]; compared with the placebo group, p=0.0920): more pronounced
subjects who used enemas ([1]; double-blind period): 17%
subjects who used rescue laxatives ([1]; double-blind period): 27%
subjects who required manual disimpaction ([1]; double-blind period, either group): < 5%
opioid use ([1]; effect of MNTX administration): not affected
efficacy versus placebo for the primary and all secondary efficacy endpoints ([1]; fixed doses 8 mg or 12 mg SC QOD): statistically superior to placebo
median time to first rescue-free laxation after the first dose ([1]; in vivo): 0.8 h
subjects with rescue-free laxation within 4 hours after at least 4 of the maximum 7 doses ([1]; in vivo): 62.2%
subjects with rescue-free laxation within 4 hours of the first dose ([1]; in vivo): 69.8%
Adverse Events of Disease Progression, n/N ([2]; Combined (Study 1 & Study 2), double-blind phase, cancer subjects): 16/116
% Progression ([2]; MNTX Non-Responders): 22.0%
Disease Progression (number of subjects) ([2]; MNTX Non-Responders): 11
No Disease Progression (number of subjects) ([2]; MNTX Non-Responders): 39
% Progression ([2]; MNTX Responders): 7.6%
No Disease Progression (number of subjects) ([2]; MNTX Responders): 61
Disease Progression (number of subjects) ([2]; MNTX Responders (laxation within 4 hours after two of the first four doses)): 5
No Disease Progression (number of subjects) ([2]; MNTX Total): 100
Disease Progression (number of subjects) ([2]; MNTX Total, pooled): 16
Adverse Events of Disease Progression, % ([2]; Study 1, double-blind phase): (16.2%)
Adverse Events of Disease Progression, n/N ([2]; Study 1, double-blind phase): 6/37
Adverse Events of Disease Progression, % ([2]; Study 2, double-blind phase): (12.7%)
Adverse Events of Disease Progression, n/N ([2]; Study 2, double-blind phase): 10/79
reduction in the incidence of AE of disease progression versus placebo ([2]; pooled analysis): ~46%
tumor growth and metastasis (Lewis lung cancer model): dramatically reduced growth and metastasis

— patent publication US20210121456A1, “USE OF METHYLNALTREXONE TO ATTENUATE TUMOR PROGRESSION” (Salix Pharmaceuticals, Inc., priority 2014, published 2021)
